Assays:
M5 canine melanoma tumor [1] = experiment: M5 canine melanoma tumor growth in implanted mice; type: in vivo, BALB/cByJNarl mice; details: cisplatin 2 mg/kg; for Tumor mass: after excision from sacrificed mice, IP three times per week, PTS 100 mg/kg, mean ± SD; for Tumor mass reduction (%): relative to the control, PTS 100 mg/kg IP three times per week
Procedure: Male BALB/cByJNarl mice at six-weeks of age were obtained from National Laboratory Animal Breeding and Research Center, Taipei, Taiwan. Two mice were housed in each cage and provided them with sterile food and water. The mice were maintained under a constant temperature (22±2° C.) and relative humidity (55±5%), with a 12:12 h light:dark cycle. The Institutional Animal Care and Use Committee (IACUC) at the National […] University (IACUC Approval No.110003) reviewed and approved the study protocol, in which procedures were in accordance with the Guidelines for the Care and Use of Laboratory Animals published by the Taiwanese Ministry of Health and Welfare. The M5 canine melanoma cell line was obtained from the School of Veterinary Medicine at National Taiwan University. The cells were cultured in a humidified atmosphere (95% air, 5% CO2) at 37° C. in 90% high-glucose Dulbecc's Modified Eagle Medium supplemented with 5% fetal bovine serum, 50 IU/ml of penicillin, and […] of streptomycin (Gibco Laboratories, Grand Island, NY, USA). The cells were routinely passaged by removing the medium and overlaying the cell monolayer with 0.25% trypsin and 0.1% ethylenediaminetetraacetic acid. The experimental treatments were commenced after the implanted M5 cells had formed a detectable tumor mass, which was assessed on day 7 after implantation. Briefly, the mice were anesthetized via intraperitoneal injection of Zoletil (Virbac Taiwan, Taipei, Taiwan), and then subcutaneously injected 100 μl of cell suspension containing 10^7 viable M5 cells into a posterior leg. […] All treatments were administered via intraperitoneal injection. The control group received saline daily, while the three treatment groups received their corresponding treatments three times per week. The cisplatin group received 2 mg/kg cisplatin (Sigma; St. Louis, MO, USA). The PTS group was administered with 100 mg/kg PTS (Gongwin Biopharm Holding, Taipei, Taiwan). The cisplatin+PTS group received 100 mg/kg PTS and 2 mg/kg cisplatin. The dosage of cisplatin was selected such that this drug affects apoptosis, invasion, metastasis, angiogenesis, and the growth signal mechanisms in canine melanoma implanted in mice. […] The growth of the tumors was assessed every seven days by measuring their largest and smallest diameters, and calculated their volume according to the following formula: […] The mice were observed daily for clinical signs, weighed them every three days, and at one month after tumor-cell implantation euthanized them with an overdose of anesthetic combined with carbon dioxide. […] Protein expression was assessed via IHC with the […] mouse/rabbit polymer detection system produced by BioTnA (Kaohsiung, Taiwan). […]

M5 canine melanoma tumor [2] = experiment: TUNEL/DAPI assay of apoptosis in excised M5 tumors; type: in vivo, BALB/c nude mice; details: cisplatin 2 mg/kg, PTS 100 mg/kg IP three times per week
Procedure: (§1) The mice were observed daily for clinical signs, weighed them every three days, and at one month after tumor-cell implantation euthanized them with an overdose of anesthetic combined with carbon dioxide. Immediately before sacrificing the mice, the blood was collected from them under anesthesia for hematological assessment. After euthanizing the mice, the tumors were excised immediately. The tumor specimens were divided into two groups. One group was treated with 10% formalin and embedded the specimens in paraffin. These specimens were investigated by hematoxylin and eosin staining; terminal deoxyribonucleotidyl transferase (TdT)-mediated biotin-16-dUTP nick-end labeling (TUNEL assay; APO-BrdU TUNEL Assay Kit, BD Pharmingen, San Diego, CA, USA); and IHC for IL-1β, TNF-α, TGF-β, and CD44, using primary antibodies against these factors (Merck, Billerica, MA, USA). Protein expression was assessed via IHC with the […] mouse/rabbit polymer detection system produced by BioTnA (Kaohsiung, Taiwan). A high-resolution digital microscope (Moticam 2300, Motic Instruments, Richmond, Canada) equipped with Motic Images Plus (version 2.0) was used to capture and analyze the images. The other groups of tumor specimens were first minced coarsely and homogenized, and then stored in a freezer at -80° C.

TNF-α = experiment: IHC analysis of TNF-α in M5 tumors; type: in vivo, BALB/c nude mice; details: relative to the control group
Procedure: as §1

cyclooxygenase-2 (COX-2) = experiment: Western blot of COX-2 in M5 tumors; type: in vivo, BALB/c nude mice; details: vs control group
Procedure: The mice were observed daily for clinical signs, weighed them every three days, and at one month after tumor-cell implantation euthanized them with an overdose of anesthetic combined with carbon dioxide. Immediately before sacrificing the mice, the blood was collected from them under anesthesia for hematological assessment. After euthanizing the mice, the tumors were excised immediately. The tumor specimens were divided into two groups. One group was treated with 10% formalin and embedded the specimens in paraffin. These specimens were investigated by hematoxylin and eosin staining; terminal deoxyribonucleotidyl transferase (TdT)-mediated biotin-16-dUTP nick-end labeling (TUNEL assay; APO-BrdU TUNEL Assay Kit, BD Pharmingen, San Diego, CA, USA); and IHC for IL-1β, TNF-α, TGF-β, and CD44, using primary antibodies against these factors (Merck, Billerica, MA, USA). Protein expression was assessed via IHC with the TAlink mouse/rabbit polymer detection system produced by BioTnA (Kaohsiung, Taiwan). […]
Western blotting on the second group of tumor specimens was performed according to standard protocol (Wu et al 2020). […] Protein expression and phosphorylation were quantified with ImageJ (National Institutes of Health, Bethesda, […], USA).

| Compound | Tumor mass (M5 canine melanoma tumor [1]) [g] | Tumor mass reduction (%) (M5 canine melanoma tumor [1]) | TUNEL-positive cell count as multiple of the control (M5 canine melanoma tumor [2]) [times] | TNF-α activity reduction (TNF-α) [%] | Expression of cyclooxygenase-2 (COX-2) (cyclooxygenase-2 (COX-2)) |
| --- | --- | --- | --- | --- | --- |
| N.N.[Cl][Pt][Cl] [Cisplatin, cisplatin, reference compound] | 1.37 ± 0.25 | 48.7 | 3.9 | 77.4 | lower |
| Cc1ccc(S(N)(=O)=O)cc1 [PTS, p-Toluenesulfonamide] | 1.48 ± 0.33 | 44.2 | 3.5 | 73.0 | lower |
